{"source": "patent US9629817B2", "about": "(priority 2005, dated 2017)", "system": "Pigs", "conditions": "riluzole ip 8 mg/kg; for average number of episodes of sustained arrhythmias: VT or VF lasting more than 15 seconds", "procedure": "Pigs of either sex and weighing between 20 and 35 kg were each anaesthetised with thiopentone sodium (10-15 mg/kg iv) and maintained under general anaesthesia with isoflurane (0.5-2% in oxygen). Artificial ventilation was maintained at a volume of 15 ml/kg and a rate of 12 breaths per minute. […] Subsequent to a mid-stemotomy and division of the pericardium, the left anterior coronary artery (LAD) was occluded mid-way along its length by permanent ligation.", "key": {"[1]": {"conditions": "first three hours post commencement of hypoxia"}, "[2]": {"conditions": "phase 2 (60-180 minutes post LAD occlusion)"}}, "note": "Where two headings read alike, the source gives them in different places."}
{"smiles": "Nc1nc2ccc(OC(F)(F)F)cc2s1", "note": "[riluzole, 2-amino-6-tritluoromethoxybenzothiazole]", "values": [{"measurement": "animals which developed any non-sustained arrhythmias", "setting": "[1]", "value": 50, "unit": "%"}, {"measurement": "animals which developed any sustained arrhythmias", "setting": "[1]", "value": 50, "unit": "%"}, {"measurement": "number of spontaneous PVCs (single), riluzole vs control group", "setting": "phase 1a (first 15 minutes of hypoxia following LAD occlusion)", "value": "no significant difference"}, {"measurement": "average number of episodes of sustained arrhythmias", "setting": "phase 1a", "value": 0.17, "unit": "episodes per animal"}, {"measurement": "fall in number of episodes of non-sustained arrhythmias vs control group", "setting": "phase 1a", "value": 43, "unit": "%"}, {"measurement": "fall in number of episodes of sustained arrhythmias vs control group", "setting": "phase 1a", "value": 58, "unit": "%"}, {"measurement": "number of geminy beats (bigeminy, trigeminy and quadrigeminy) occurring spontaneously, riluzole vs control group", "setting": "phase 1a", "value": "no significant"}, {"measurement": "number of multiple PVCs occurring spontaneously, riluzole vs control group", "setting": "phase 1a", "value": "no significant difference"}, {"measurement": "number of spontaneous PVCs (single), riluzole vs control group", "setting": "phase 1b (15-60 minutes post LAD occlusion)", "value": "no significant difference"}, {"measurement": "average number of episodes of sustained arrhythmias", "setting": "phase 1b", "value": 0.33, "unit": "episodes per animal"}, {"measurement": "fall in number of episodes of non-sustained arrhythmias vs control group", "setting": "phase 1b", "value": 35, "unit": "%"}, {"measurement": "fall in number of episodes of sustained arrhythmias vs control group", "setting": "phase 1b", "value": 86, "unit": "%"}, {"measurement": "number of geminy beats (bigeminy, trigeminy and quadrigeminy) occurring spontaneously, riluzole vs control group", "setting": "phase 1b", "value": "no significant"}, {"measurement": "number of multiple PVCs occurring spontaneously, riluzole vs control group", "setting": "phase 1b", "value": "no significant difference"}, {"measurement": "average number of PVCs (single)", "setting": "[2]", "value": 17}, {"measurement": "drop in average number of PVCs (single) vs control group", "setting": "[2]", "value": 91, "unit": "%"}, {"measurement": "average number of episodes of sustained arrhythmias", "setting": "phase 2", "value": 0.33, "unit": "episodes per animal"}, {"measurement": "average number of geminy beats", "setting": "phase 2", "value": 0}, {"measurement": "average number of multiple PVCs", "setting": "phase 2", "value": 7}, {"measurement": "drop in average number of geminy beats vs control group", "setting": "phase 2", "value": 100, "unit": "%"}, {"measurement": "drop in average number of multiple PVCs vs control group", "setting": "phase 2", "value": 93, "unit": "%"}, {"measurement": "fall in number of episodes of non-sustained arrhythmias vs control group", "setting": "phase 2", "value": 92, "unit": "%"}, {"measurement": "fall in number of episodes of sustained arrhythmias vs control group", "setting": "phase 2", "value": 90, "unit": "%"}]}
